Values quoted from earlier work in patent US20060074243A1, “Hydroxamic acid and amide compounds and their use as protease inhibitors” (Pharmacia Corporation, priority 2002, published 2006).

Tested on: solid tumor cancers (colorectal, pancreatic, ovarian, and prostate)
Settings: cited from earlier work

CNC(=O)[C@@H](NC(=O)[C@H](CC(C)C)[C@H](O)C(=O)NO)C(C)(C)C [Marimastat]
most common drug-related toxicity (clinical trials): musculoskeletal pain and stiffness
rise of cancer-specific antigens used as surrogate markers for biological activity (patients with advanced, rapidly progressive, treatment-refractory solid tumor cancers): dose-related reduction
